Experimental findings from patent publication US6830761B1, “Composition comprising micro-encapsulated iron” (Ped-Med Ltd., priority 1998, dated 2004) are described below.

The subject of this assay is anemic rats. Put plainly: hemoglobin-repletion test in anemic rats (relative bioavailability of iron). Conditions: high iron diet, 20 mg/kg of diet, after 14 days of feeding. Type of assay: in vivo, Sprague-Dawley rats.

Procedure: Male weanling Sprague-Dawley rats housed individually in stainless steel cages were fed a low-iron diet and de-ionized distilled water ad lib for 24 days. The low-iron diet contained no more than about 3 mg of iron per kg of diet. Following the 24 day depletion period, approximately 200 μl of blood was drawn from the tail vein of each rat for hemoglobin analysis. Anemic rats having hemoglobin values between 30 and 60 g/L were used in the study. The rats were housed individually in cages in a randomized block design.

In turn, ferrous sulfate showed a mean hemoglobin response of 31 g/L.
